# Assay results taken from patent publication US20260274810A1, “NOVEL MITOFUSIN INHIBITORS” (ALBERT EINSTEIN COLLEGE OF MEDICINE, priority 2023, published 2026).
# What was measured:
# [1] = tested on: Tomm20, mitotracker green, mtDNA/nDNA, mitochondrial biogenesis markers; experiment: Mitochondrial biomass and biogenesis markers; format: cell-based
# Method: Western blot. Western blots were performed from whole cell lysates (WCL) prepared in lysis buffer containing 50 mM Tris-HCl pH 7.5, 1% Triton X-100, 150 mM NaCl, 5 mM MgCl2, 1 mM EGTA and 10% glycerol in the presence of protease inhibitor cocktail (Roche). WCL were separated on a 4-12% NuPAGE MES gel (Invitrogen), transferred into a PVDF membrane, block for 1 hr and immunoblot with the corresponding anti-bodies.
# Analysis of mitochondrial biogenesis-related genes by q-PCR. Total RNA was extracted by using RNeasy Mini Kit (Qiagen) followed by cDNA synthesis using the SuperScript IV VILO Master Mix (Thermo Scientific), both performed according to the manufacturer's protocol. q-PCR was performed using the following primers: […]
# For the q-PCR reaction, Power SYBR Green master mix (Thermo Scientific) was used according to the manufacturer's instructions. Briefly, each reaction consisted of 10 ng cDNA, 5 μL Power SYBR Green master mix, 200 nM primers (forward and reverse), and RNase-free water up to 10 μL. q-PCR was performed on the ViiA 7 Real-Time PCR System (Thermo Scientific) with the following cycle parameter: 95° C. for 10 min, 40 cycles of 95° C. for 15 s, and 60° C. for 1 min. q-PCR products were analyzed by melting curves for unspecific products or primer dimer formation. Rpi39 was used as housekeeping gene and 2^−ΔΔCT method was applied to determine the relative mRNAs expression. […]
# MEFs [2] = experiment: Mitochondrial respiration in cellulo (OCR); format: cell-based, mouse; settings: WT MEFs; MASM7 1 μM or MFI8 20 μM, 6 hrs
# Method: Mitochondrial respiration in cellulo. Mitochondrial oxygen consumption rates (OCR) were assessed using a XF24 Analyzer (Seahorse Biosciences, Billerica MA, USA). In brief, 3×10^4 MEFs were cultured in a XF24 cell culture microplate containing DMEM supplemented with 10% fetal bovine serum. Cells were treated with MASM7 (1 μM) or MFI8 (20 μM) 6 hrs prior to OCR analysis. Mitochondrial respiration was assessed by the sequential addition of oligomycin (1 μM), carbonyl cyanide-4-(trifluoromethoxy)phenylhydrazone (FCCP, 2 μM) and rotenone (1 μM)-antimycin (1 μM) as previously reported. OCR was normalized to cell number or total protein content per well for each condition tested.
# MEFs [3] = experiment: RNA-seq; format: cell-based, mouse
# Source text: RNA-seq. Sequencing results were demultiplexed and converted to FASTQ format using Illumina bcl2fastq software. The sequencing reads were adapter and quality trimmed with Trimmomatic and then aligned to the mouse genome (build mm10/GRCm38) using the splice-aware STAR aligner. The featureCounts program was utilized to generate counts for each gene based on how many aligned reads overlap its exons. These counts were then normalized and used to test for differential expression using negative binomial generalized linear models implemented by the DESeq2 R package.
# cells = experiment: Cell viability assay (CellTiter-Glo); format: cell-based; settings: 72 hours
# Method: Cell viability assay. Cells (5×10^3 cells/well) were seeded in a 96-well white plate and treated with serial dilutions of MASM7 or MFI8. Cell viability was assayed after 72 hrs by addition of CellTiter-Glo reagent according to the manufacturer's protocol (Promega). Luminescence was measured using a F200 PRO microplate reader (TECAN). Viability assays were performed in at least triplicate and the data normalized to vehicle-treated control wells. Dilutions of MASM7 or MFI8 were performed using a TECAN D300e Digital Dispenser from 10 mM stocks.
# MEFs [4] = experiment: DNA damage, γH2AX immunofluorescence; format: cell-based, mouse
# Method: Immunofluorescent analysis and microscopy. Cells were treated with MASM7, MFI8 and or Q-VD-OPh at ~70% confluence for 6 h. After treatments, cells were washed with PBS and fixed with 4% PFA for 15 min. Then cells were permeabilized with 0.1% Triton X-100 in PBS for 10 min. Cells were blocked with 5% BSA in PBS-T and incubated overnight with primary antibodies as indicated; γH2AX (Sigma; 05-636, 1:100 dilution). After incubation with primary antibodies, cells were washed with PBS and incubated with the appropriate mouse secondary antibody (ThermoFisher Scientific; A-11001) in the blocking solution. After PBS washes, coverslips were dipped in water and mounted on glass slides using Vectashield containing DAPI (Vector laboratories). Images were taken with Leica SP5 inverted confocal microscope. Data were analyzed with ImageJ.
# MEFs [5] = experiment: Mitochondrial aspect ratio (Mito AR), live cell imaging
# Method: Live cell imaging. MEFs were seeded on chamber slides (MatTek Corporation: 35 mm dishes, No. 1.5, 14 mm glass diameter) at ~70% confluence. […] Images were taken with Leica SP5 inverted confocal microscope. Data were analyzed with Image J software. >200 mitochondria were measured per condition in mitochondrial aspect ratio.
# Measurement of mitochondrial aspect ratio (Mito AR). Images that depict stained mitochondria with mitotracker green were analyzed using FIJI We measured for each mitochondrion its length and width. Then, we divided the length by the width for each mitochondrion to get its mitochondrial aspect ratio. >200 mitochondria were measured per treatment.
# MEFs were seeded on chamber slides (MatTek Corporation: 35 mm dishes, No. 1.5, 14 mm glass diameter) at ~70% confluence. Cells were treated with compounds. Then, cells were stained with MitoTracker Green (200 nM, Invitrogen) for 20 min at 37° C. After treatments, media was replaced with FluoroBrite™ DMEM (Invitrogen) supplemented with 10% FBS, 100 U ml^−1 penicillin/streptomycin, 2 mM L-glutamine and compound prior image acquisition. Images were taken with Leica SP5 inverted confocal microscope. Data were analyzed with Image J software. >200 mitochondria were measured per condition in mitochondrial aspect ratio. Measurement of mitochondrial aspect ratio (Mito AR). Images that depict stained mitochondria with mitotracker green were analyzed using FIJI software. Each mitochondrion was measured for its length and width. Then, the length was divided by the width for each mitochondrion to get its mitochondrial aspect ratio. >200 mitochondria were measured per treatment.
smiles,measurement,setting,value
Cc1cccc(NC(C)c2cc(Cl)ccc2O)c1C (stereo not shown) [MFI8],gene expression levels of mitochondrial biogenesis markers,[1],no alteration
same,"Tomm20 protein levels, mitotracker green intensity and mitochondrial to nuclear DNA ratio",[1]; mitochondrial biomass,neither MASM7 nor MFI8 altered
same,respiration and mitochondrial ATP production,MEFs [2],reduced respiration and mitochondrial ATP production
same,genes involved in DNA damage response,MEFs [3]; MEFs,up-regulated several genes that are involved in DNA damage response
same,gene expression of subunits of the respiratory complexes,MEFs [3]; RNA-seq,reduced the gene expression of several nuclear-encoded subunits of the respiratory complexes
same,cellular viability,cells,neither MFI8 nor MASM7 decreased cellular viability
same,γH2AX foci / DNA damage,MEFs [4]; MFN1/MFN2 DKO MEFs,not in MFN1/MFN2 DKO MEFs
same,γH2AX foci / DNA damage,"MEFs [4]; WT MEFs, 6 h",increased γH2AX foci
same,mitochondrial aspect ratio,MEFs [5]; MFN1/MFN2 DKO MEFs reconstituted with WT MFN2,significantly decreased mitochondrial aspect ratio
same,IC50,"MEFs [5]; Mus musculus, 6 h, read-out: IC50 (decrease of Mito AR)",4.06 µM
same,mitochondrial aspect ratio,MEFs [5]; co-treated with MASM7 in MEFs,reduced mitochondrial aspect ratio
same,mitochondrial aspect ratio,MEFs [5]; double knockout of MFN1 and MFN2,completely abolished MFI8 from reducing mitochondrial aspect ratio
same,mitochondrial aspect ratio,MEFs [5]; either MFN1 or MFN2 knocked out,still capable of reducing mitochondrial aspect ratio
